# Patent US10597388B2, “Pyridazinone herbicides” (FMC CORPORATION, priority 2014, dated 2020)
# Assays:
# Format in all cases: in vivo
# [1] = system: barnyardgrass (Echinochloa crus-galli); experiment: Test E greenhouse herbicide test, pre- and postemergence
# Outline: (§1)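 For each species, sown seed in silt loam and young plants (2 to 18 cm) in a peat/vermiculite medium were each treated with compound dissolved in surfactant-containing, non-phytotoxic solvent. After 14 to 21 d under greenhouse conditions, effects were visually rated, 100 meaning complete control.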
# [2] = system: crabgrass, Brazilian (Brazilian crabgrass, Digitaria horizontalis); experiment: as above
# Outline: as §1
# [3] = system: beggarticks (hairy beggarticks, Bidens pilosa); experiment: as above
# Outline: as §1
# kochia (Kochia scoparia) = experiment: as above
# Outline: as §1
# soybean (Glycine max) = experiment: as above
# Outline: as §1
# [4] = system: goosegrass (Eleusine indica); experiment: as above; conditions: Preemergence
# Outline: as §1
# [5] = system: dayflower (Virginia (VA) dayflower, Commelina virginica); experiment: as above
# Outline: as §1
# [6] = system: Italian ryegrass (Lolium multiflorum); experiment: as above
# Outline: as §1
# [7] = system: horseweed (Conyza canadensis); experiment: as above
# Outline: as §1
# [8] = system: ragweed (common ragweed, Ambrosia elatior); experiment: as above
# Outline: as §1
# [9] = system: sandbur (southem sandbur, Cenchrus echinatus); experiment: as above
# Outline: as §1
# [10] = system: crabgrass, large (large crabgrass, Digitaria sanguinalis); experiment: as above; conditions: Preemergence
# Outline: as §1
# [11] = system: pigweed, palmer (palmer pigweed, Amaranthus palmeri); experiment: as above
# Outline: as §1
# [12] = system: waterhemp_RES1 (ALS & Triazine resistant common waterhemp, Amaranthus rudis); experiment: Test E greenhouse herbicide test, postemergence
# Outline: (§2)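 Resistant waterhemp plants grown in peat/vermiculite potting medium were sprayed postemergence at the 1- to 4-leaf stage (2–18 cm tall). After 14 to 21 d in the greenhouse, injury was visually rated against untreated controls on a 0–100 scale, where 0 is no effect and 100 is complete control.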
# [13] = system: waterhemp_RES2 (ALS & HPPD resistant common waterhemp, Amaranthus rudis); experiment: Test E greenhouse herbicide test, postemergence
# Outline: as §2
# [14] = 62 g ai/ha, Postemergence, scale 0 to 100 (0 no effect, 100 complete control)
# [15] = 62 g ai/ha, Preemergence, scale 0 to 100 (0 no effect, 100 complete control)
# [16] = 125 g ai/ha, Postemergence, scale 0 to 100 (0 no effect, 100 complete control)
# [17] = 125 g ai/ha, Preemergence, scale 0 to 100 (0 no effect, 100 complete control)
# [18] = 250 g ai/ha, Postemergence, scale 0 to 100 (0 no effect, 100 complete control)
# [19] = Postemergence, 31 g ai/ha, visual, scale 0 no effect to 100 complete control
# [20] = Preemergence, 31 g ai/ha, scale 0 to 100, 0 no effect, 100 complete control
# [21] = Preemergence, 250 g ai/ha, visual, scale 0 no effect to 100 complete control
# [22] = 62 g ai/ha, scale 0 to 100 (0 no effect, 100 complete control)
# [23] = 125 g ai/ha, scale 0 to 100 (0 no effect, 100 complete control)
# [24] = 31 g ai/ha, scale 0 to 100, 0 no effect, 100 complete control
# [25] = 250 g ai/ha, visual, scale 0 no effect to 100 complete control
# [26] = 31 g ai/ha, visual, scale 0 no effect to 100 complete control
# [27] = 250 g ai/ha, scale 0 to 100 (0 no effect, 100 complete control)
compound,measurement,setting,value
Cc1ccc2sc(Br)c(-c3c(O)c(C)nn(C)c3=O)c2c1 [Compound 79],"Plant response rating, Barnyardgrass",[1]; [14],15
same,"Plant response rating, Barnyardgrass",[1]; [15],30
same,"Plant response rating, Barnyardgrass",[1]; [16],20
same,"Plant response rating, Barnyardgrass",[1]; [17],40
same,"Plant response rating, Barnyardgrass",[1]; [18],20
same,"Plant response rating, Barnyardgrass",[1]; [19],15
same,"Plant response rating, Barnyardgrass",[1]; [20],30
same,"Plant response rating, Barnyardgrass",[1]; [21],50
same,"Plant response rating, Crabgrass, Brazil",[2]; [14],20
same,"Plant response rating, Crabgrass, Brazil",[2]; [15],30
same,"Plant response rating, Crabgrass, Brazil",[2]; [16],25
same,"Plant response rating, Crabgrass, Brazil",[2]; [17],80
same,"Plant response rating, Crabgrass, Brazil",[2]; [18],40
same,"Plant response rating, Crabgrass, Brazil",[2]; [19],20
same,"Plant response rating, Crabgrass, Brazil",[2]; [21],100
same,"Plant response rating, Beggarticks",[3]; [14],100
same,"Plant response rating, Beggarticks",[3]; [15],100
same,"Plant response rating, Beggarticks",[3]; [16],100
same,"Plant response rating, Beggarticks",[3]; [17],100
same,"Plant response rating, Beggarticks",[3]; [18],100
same,"Plant response rating, Beggarticks",[3]; [19],100
same,"Plant response rating, Beggarticks",[3]; [20],100
same,"Plant response rating, Beggarticks",[3]; [21],100
same,"Plant response rating, Kochia",kochia (Kochia scoparia); [14],80
same,"Plant response rating, Kochia",kochia (Kochia scoparia); [15],70
same,"Plant response rating, Kochia",kochia (Kochia scoparia); [16],90
same,"Plant response rating, Kochia",kochia (Kochia scoparia); [17],100
same,"Plant response rating, Kochia",kochia (Kochia scoparia); [18],98
same,"Plant response rating, Kochia",kochia (Kochia scoparia); [19],70
same,"Plant response rating, Kochia",kochia (Kochia scoparia); [20],50
same,"Plant response rating, Kochia",kochia (Kochia scoparia); [21],100
same,"Plant response rating, Soybean",soybean (Glycine max); [14],10
same,"Plant response rating, Soybean",soybean (Glycine max); [15],50
same,"Plant response rating, Soybean",soybean (Glycine max); [16],15
same,"Plant response rating, Soybean",soybean (Glycine max); [17],40
same,"Plant response rating, Soybean",soybean (Glycine max); [18],10
same,"Plant response rating, Soybean",soybean (Glycine max); [19],0
same,"Plant response rating, Soybean",soybean (Glycine max); [20],40
same,"Plant response rating, Soybean",soybean (Glycine max); [21],50
same,"Plant response rating, Goosegrass",[4]; [22],60
same,"Plant response rating, Goosegrass",[4]; [23],60
same,"Plant response rating, Goosegrass",[4]; [24],50
same,"Plant response rating, Goosegrass",[4]; [25],65
same,"Plant response rating, Dayflower, VA",[5]; [14],50
same,"Plant response rating, Dayflower, VA",[5]; [15],70
same,"Plant response rating, Dayflower, VA",[5]; [16],60
same,"Plant response rating, Dayflower, VA",[5]; [17],65
same,"Plant response rating, Dayflower, VA",[5]; [18],65
same,"Plant response rating, Dayflower, VA",[5]; [19],50
same,"Plant response rating, Dayflower, VA",[5]; [20],50
same,"Plant response rating, Dayflower, VA",[5]; [21],70
same,"Plant response rating, Ryegrass, Italian",[6]; [14],40
same,"Plant response rating, Ryegrass, Italian",[6]; [15],80
same,"Plant response rating, Ryegrass, Italian",[6]; [16],70
same,"Plant response rating, Ryegrass, Italian",[6]; [17],100
same,"Plant response rating, Ryegrass, Italian",[6]; [18],80
same,"Plant response rating, Ryegrass, Italian",[6]; [19],30
same,"Plant response rating, Ryegrass, Italian",[6]; [20],75
same,"Plant response rating, Ryegrass, Italian",[6]; [21],100
same,"Plant response rating, Horseweed",[7]; [14],95
same,"Plant response rating, Horseweed",[7]; [15],100
same,"Plant response rating, Horseweed",[7]; [16],95
same,"Plant response rating, Horseweed",[7]; [17],100
same,"Plant response rating, Horseweed",[7]; [18],90
same,"Plant response rating, Horseweed",[7]; [19],90
same,"Plant response rating, Horseweed",[7]; [20],100
same,"Plant response rating, Horseweed",[7]; [21],100
same,"Plant response rating, Ragweed",[8]; [14],98
same,"Plant response rating, Ragweed",[8]; [15],100
same,"Plant response rating, Ragweed",[8]; [16],95
same,"Plant response rating, Ragweed",[8]; [17],100
same,"Plant response rating, Ragweed",[8]; [18],100
same,"Plant response rating, Ragweed",[8]; [19],90
same,"Plant response rating, Ragweed",[8]; [20],100
same,"Plant response rating, Ragweed",[8]; [21],100
same,"Plant response rating, Sandbur",[9]; [14],30
same,"Plant response rating, Sandbur",[9]; [15],70
same,"Plant response rating, Sandbur",[9]; [16],50
same,"Plant response rating, Sandbur",[9]; [17],80
same,"Plant response rating, Sandbur",[9]; [18],65
same,"Plant response rating, Sandbur",[9]; [19],20
same,"Plant response rating, Sandbur",[9]; [20],60
same,"Plant response rating, Sandbur",[9]; [21],75
same,"Plant response rating, Crabgrass, Large",[10]; [22],0
same,"Plant response rating, Crabgrass, Large",[10]; [23],20
same,"Plant response rating, Crabgrass, Large",[10]; [24],0
same,"Plant response rating, Crabgrass, Large",[10]; [25],30
same,"Plant response rating, Pigweed, Palmer",[11]; [14],35
same,"Plant response rating, Pigweed, Palmer",[11]; [15],70
same,"Plant response rating, Pigweed, Palmer",[11]; [16],40
same,"Plant response rating, Pigweed, Palmer",[11]; [17],70
same,"Plant response rating, Pigweed, Palmer",[11]; [18],75
same,"Plant response rating, Pigweed, Palmer",[11]; [19],40
same,"Plant response rating, Pigweed, Palmer",[11]; [20],75
same,"Plant response rating, Pigweed, Palmer",[11]; [21],75
same,"Plant response rating, Waterhemp_RES1",[12]; [26],50
same,"Plant response rating, Waterhemp_RES1",[12]; [22],60
same,"Plant response rating, Waterhemp_RES1",[12]; [23],70
same,"Plant response rating, Waterhemp_RES1",[12]; [27],75
same,"Plant response rating, Waterhemp_RES2",[13]; [26],20
same,"Plant response rating, Waterhemp_RES2",[13]; [22],15
same,"Plant response rating, Waterhemp_RES2",[13]; [23],15
same,"Plant response rating, Waterhemp_RES2",[13]; [27],55
